Among the data in US6897217B2, “2-Alkynyl-and 2-alkenyl-pyrazolo-[4,3-e]-1,2,4-triazolo-[1,5-c]-pyrimidine adenosine A2a receptor antagonists” (Schering Corporation, priority 2003, dated 2005) are Ki values, retold here.

This test has as its target T1, Human A2a Adenosine Receptor (Homo sapiens, UniProt P29274).
T1 construct: purchased Receptor Biology, Inc., Beltsville, Md; RB-HA2a
Nature of the test: Human adenosine A2a receptor competition binding assay. The note with it: [3H]-SCH 58261 displacement, human A2a membranes. On the procedure: Human Adenosine A2a and A1 Receptor Competition Binding Assay Protocol
• A2a: Human A2a Adenosine Receptor membranes, Catalog #RB-HA2a, Receptor Biology, Inc., Beltsville, Md. Dilute to 17 μg/100 μl in membrane dilution buffer (see below). Assay Buffers • Membrane dilution buffer: Dulbecco's Phosphate Buffered Saline (Gibco/BRL)+10 mM MgCl2. • Compound Dilution Buffer: Dulbecco's Phosphate Buffered Saline (Gibco/BRL)+10 mM MgCl2 supplemented with 1.6 mg/ml methyl cellulose and 16% DMSO. Prepared fresh daily. Ligands • A2a: [3H]-SCH 58261, custom synthesis, AmershamPharmacia Biotech, Piscataway, N.J. Stock is prepared at 1 nM in membrane dilution buffer. Final assay concentration is 0.5 nM. • A1: [3H]-DPCPX, AmershamPharmacia Biotech, Piscataway, N.J. Stock is prepared at 2 nM in membrane dilution buffer. Final assay concentration is 1 nM. Non-specific Binding • A2a: To determine non-specific binding, add 100 nM CGS 15923 (RBI, Natick, Mass.). Working stock is prepared at 400 nM in compound dilution buffer. • A1: To determine non-specific binding, add 100 μM NECA (RBI, Natick, Mass.). Working stock is prepared at 400 μM in compound dilution buffer. Compound Dilution • Prepare 1 mM stock solutions of compounds in 100% DMSO. Dilute in compound dilution buffer. Test at 10 concentrations ranging from […] to 30 μM. Prepare working solutions at 4× final concentration in compound dilution buffer. […]

T1 sequence (P29274 whole entry): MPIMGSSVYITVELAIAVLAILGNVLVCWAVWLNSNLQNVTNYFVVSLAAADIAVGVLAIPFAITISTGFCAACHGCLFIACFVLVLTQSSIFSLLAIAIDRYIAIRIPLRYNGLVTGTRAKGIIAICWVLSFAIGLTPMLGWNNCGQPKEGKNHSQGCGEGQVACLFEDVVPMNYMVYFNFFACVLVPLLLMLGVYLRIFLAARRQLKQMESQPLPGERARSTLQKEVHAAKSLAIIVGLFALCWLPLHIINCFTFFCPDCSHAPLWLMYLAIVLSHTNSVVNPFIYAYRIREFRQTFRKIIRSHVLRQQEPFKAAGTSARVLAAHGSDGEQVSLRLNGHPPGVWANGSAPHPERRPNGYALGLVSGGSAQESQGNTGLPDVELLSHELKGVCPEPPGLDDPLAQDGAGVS

For orientation: Ki means the equilibrium dissociation constant of an inhibitor or competing ligand from its target. Higher therefore signals a looser hold on the target. For the molecule `CC#Cc1nc2c3cnn(CCN4CCN(c5ccc(F)cc5F)CC4)c3nc(N)n2n1` [Example 1-17], the Ki was 2.2 nM. As for `CC#Cc1nc2c3cnn(CCN4CCN(c5ccc(OCCOC)cc5F)CC4)c3nc(N)n2n1` [Example 5-4], the Ki was found to be 2.3 nM.
